Earlier results in patent US20130143897A1, “ORAL CONTROLLED RELEASE PHARMACEUTICAL COMPOSITIONS OF BLONANSERIN” (LUPIN LIMITED, priority 2010, published 2013).

Experiments:
[1] = target: serotonin (S2) receptors (Homo sapiens, UniProt P28223)
[2] = target: dopamine (D2) receptors (Homo sapiens, UniProt P14416)
Chain of dopamine (D2) receptors (P14416 whole entry): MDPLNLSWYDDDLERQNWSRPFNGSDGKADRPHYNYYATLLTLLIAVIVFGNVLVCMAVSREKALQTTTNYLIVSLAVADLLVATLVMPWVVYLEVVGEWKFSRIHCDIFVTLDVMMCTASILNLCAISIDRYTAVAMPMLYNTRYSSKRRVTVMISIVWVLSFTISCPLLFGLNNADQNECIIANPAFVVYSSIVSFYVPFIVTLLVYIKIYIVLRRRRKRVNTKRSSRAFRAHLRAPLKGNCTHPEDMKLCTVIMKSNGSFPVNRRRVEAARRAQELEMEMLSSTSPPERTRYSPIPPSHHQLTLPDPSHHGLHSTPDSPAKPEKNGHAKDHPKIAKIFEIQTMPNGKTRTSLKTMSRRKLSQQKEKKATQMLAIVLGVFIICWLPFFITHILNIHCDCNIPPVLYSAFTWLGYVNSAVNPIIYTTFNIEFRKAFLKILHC

Chain of serotonin (S2) receptors (P28223 whole entry): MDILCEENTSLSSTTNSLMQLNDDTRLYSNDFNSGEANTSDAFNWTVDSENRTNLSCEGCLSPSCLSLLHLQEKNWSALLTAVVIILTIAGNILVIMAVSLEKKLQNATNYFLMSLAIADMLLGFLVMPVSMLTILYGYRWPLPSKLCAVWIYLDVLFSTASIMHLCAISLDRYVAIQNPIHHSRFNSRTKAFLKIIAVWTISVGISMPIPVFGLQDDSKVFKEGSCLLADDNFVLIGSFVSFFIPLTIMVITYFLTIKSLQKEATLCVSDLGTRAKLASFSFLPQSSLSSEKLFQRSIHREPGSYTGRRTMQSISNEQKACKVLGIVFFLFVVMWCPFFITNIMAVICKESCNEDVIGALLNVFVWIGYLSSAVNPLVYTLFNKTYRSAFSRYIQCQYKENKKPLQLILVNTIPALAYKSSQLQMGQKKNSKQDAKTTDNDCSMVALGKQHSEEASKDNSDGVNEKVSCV

- binding property to serotonin (S2) receptors [1]: potent
- solubility in water: poor
- binding property to dopamine (D2) receptors [2]: potent
SMILES: CCN1CCN(c2cc(-c3ccc(F)cc3)c3c(n2)CCCCCC3)CC1 [Blonanserin, 2-(4-Ethyl-1-piperazinyl)-4-(4-fluorophenyl)-5,6,7,8,9,10-hexahydrocycloocta[b]pyridine]
